The results in this text go back to patent US8178506B2, “Oligomeric compounds and compositions for use in modulation of small non-coding RNAs” (Regulus Therapeutics Inc., priority 2003, dated 2012).

This data set deals with HeLa cells. In words: Cell cycle assay in HeLa cells. Format: cell-based, human. As to conditions: HeLa cells.
[1] abbreviates: 25 nM, 48 hours, percentage of cells in phase, average of replicates.
[2] abbreviates: 50 nM, 48 hours, percentage of cells in phase, average of replicates.
[3] abbreviates: 100 nM, 48 hours, percentage of cells in phase, average of replicates.
Setting [4] is: 150 nM oligomeric compound, 24 hours, relative to untreated control (UTC = 100).
[5] abbreviates: 150 nM oligomeric compound, 48 hours after treatment, relative to untreated control (UTC=100).
Where [6] appears, read: 150 nM, 48 hours, relative to untreated control.
Setting [7] is: 150 nM, 48 hours, percentage of cells in phase, average of replicates.

“And” between values parts separate entries of the source, which are not always exact repeats. Identical values can stand only once. In the oligonucleotide strings, read from the 5' end, every base follows the letter of its sugar. An asterisk marks phosphorothioate; unmarked linkages are phosphodiester. Other units and linkages are bracketed, terminal groups are in braces. A string of capitals states the bases alone. e = 2'-O-(2-methoxyethyl) (MOE); [5mC] = 5-methylcytosine; d = 2'-deoxy (DNA)

On to “328403 (antisense eA*eG*eG*e[5mC]*e[5mC]*dT*dA*dT*dT*d[5mC]*d[5mC]*dT*dG*dT*dA*eG*e[5mC]*eA*eA*eA) [compound 328403]”, for which the “% cells in cell cycle phase: G2/M” value (25 nM, 48 hours) amounted to 18%. Besides, under setting [1], the “% cells in cell cycle phase: G1” value is given as 58%, the “% cells in cell cycle phase: S” value was found to be 24%, the “% cells in cell cycle phase: aneuploid” value was 13% and the “% cells in cell cycle phase: subG1” value was found to be 1.5%. Besides, the “% cells in cell cycle phase: G2/M” value (50 nM, 48 hours) turned out to be 20%. Under setting [2], the “% cells in cell cycle phase: G1” value was 53%, the “% cells in cell cycle phase: S” value is 27%, the “% cells in cell cycle phase: aneuploid” value is listed as 14% and the “% cells in cell cycle phase: subG1” value is given as 1.1%. For the same substance, the “% cells in cell cycle phase: G2/M” value (100 nM, 48 hours) was 23%. Besides, under setting [3], the “% cells in cell cycle phase: G1” value was 48%, the “% cells in cell cycle phase: S” value came to 29%, the “% cells in cell cycle phase: aneuploid” value was determined as 11% and the “% cells in cell cycle phase: subG1” value is listed as 3.5%. Under setting [4], the “% cells aneuploid” value was 53% and 82%; the “% cells in cell cycle phase G1” value is 70% and 86%; the “% cells in cell cycle phase G2/M” value is 197% and 179%; the “% cells in cell cycle phase S” value is 85% and 75%. The “% cells in cell cycle phase subG1” value under setting [4] is 284% and 189%. In addition, under setting [5], the “% cells in cell cycle phase: G1” value is 61% and 82%; the “% cells in cell cycle phase: G2/M” value is 131% and 106%; the “% cells in cell cycle phase: S” value was 177% and 148%; the “% cells in cell cycle phase: aneuploid” value was 85% and 80%. For the same substance, the “% cells in cell cycle phase: G2/M” value (150 nM, 48 hours) came out at 24%. Also, under setting [6], the “% cells in cell cycle phase G1” value was 125%, the “% cells in cell cycle phase G2/M” value is listed as 80%, the “% cells in cell cycle phase S” value was 89% and the “% cells in cell cycle phase aneuploid” value was found to be 175%. Under setting [6], the “% cells in cell cycle phase subG1” value is on record as 89%. Moreover, under setting [7], the “% cells in cell cycle phase: G1” value is listed as 37%, the “% cells in cell cycle phase: S” value is 40%, the “% cells in cell cycle phase: aneuploid” value turned out to be 13% and the “% cells in cell cycle phase: subG1” value is 8.2%.
On to “327944 (antisense eA*eA*eA*eG*eT*eG*eT*e[5mC]*eA*eG*eA*eT*eA*e[5mC]*eG*eG*eT*eG*eT*eG*eG) [compound 327944]”, for which, under setting [4], the “% cells aneuploid” value stood at 50%, the “% cells in cell cycle phase G1” value came to 85%, the “% cells in cell cycle phase G2/M” value stood at 111% and the “% cells in cell cycle phase S” value is given as 110%. Under setting [4], the “% cells in cell cycle phase subG1” value is recorded as 165%. Under setting [5], the “% cells in cell cycle phase: G1” value stood at 75%, the “% cells in cell cycle phase: G2/M” value is reported as 144%, the “% cells in cell cycle phase: S” value was 129% and the “% cells in cell cycle phase: aneuploid” value is 78%. Further, the “% cells in cell cycle phase: subG1” value under setting [5] amounted to 490%.
Regarding “327946 (antisense eA*eG*eG*e[5mC]*eG*eA*eA*eG*eG*eA*eT*eG*eA*e[5mC]*eA*eA*eA*eG*eG*eG*eA*eA) [compound 327946]”, under setting [4], the “% cells aneuploid” value came out at 43%, the “% cells in cell cycle phase G1” value was determined as 90%, the “% cells in cell cycle phase G2/M” value is 156% and the “% cells in cell cycle phase S” value is on record as 84%. Besides, the “% cells in cell cycle phase subG1” value under setting [4] is given as 225%. Under setting [5], the “% cells in cell cycle phase: G1” value was 72%, the “% cells in cell cycle phase: G2/M” value is listed as 129%, the “% cells in cell cycle phase: S” value is 150% and the “% cells in cell cycle phase: aneuploid” value is listed as 76%. Also, the “% cells in cell cycle phase: subG1” value under setting [5] was determined as 431%.
“327949 (antisense e[5mC]*eA*e[5mC]*eA*eA*eA*eT*eT*e[5mC]*eG*eG*eA*eT*e[5mC]*eT*eA*e[5mC]*eA*eG*eG*eG*eT*eA) [compound 327949]”: under setting [4], the “% cells aneuploid” value is given as 68%, the “% cells in cell cycle phase G1” value is 82%, the “% cells in cell cycle phase G2/M” value was 172% and the “% cells in cell cycle phase S” value turned out to be 84%. Besides, the “% cells in cell cycle phase subG1” value under setting [4] was found to be 194%. Besides, under setting [5], the “% cells in cell cycle phase: G1” value is 66%, the “% cells in cell cycle phase: G2/M” value stood at 138%, the “% cells in cell cycle phase: S” value came to 157% and the “% cells in cell cycle phase: aneuploid” value is 71%. Under setting [5], the “% cells in cell cycle phase: subG1” value worked out at 773%.
As for “327957 (antisense e[5mC]*eA*e[5mC]*eA*eA*eG*eT*eT*e[5mC]*eG*eG*eA*eT*e[5mC]*eT*eA*e[5mC]*eG*eG*eG*eT*eT) [compound 327957]”, under setting [4], the “% cells aneuploid” value was determined as 66%, the “% cells in cell cycle phase G1” value is 91%, the “% cells in cell cycle phase G2/M” value is recorded as 145% and the “% cells in cell cycle phase S” value is 88%. In addition, under setting [4], the “% cells in cell cycle phase subG1” value came out at 197%. Under setting [5], the “% cells in cell cycle phase: G1” value is listed as 65%, the “% cells in cell cycle phase: G2/M” value is 127%, the “% cells in cell cycle phase: S” value was determined as 169% and the “% cells in cell cycle phase: aneuploid” value is on record as 85%. The “% cells in cell cycle phase: subG1” value under setting [5] worked out at 864%.
